Measured values from patent US12397026B2, “Dietary supplement” (SOCIÉTÉ DES PRODUITS NESTLÉ S.A., priority 2015, dated 2025).

Tested on: probiotic bacteria preblend (Lactobacillus rhamnosus GG1 and Bifidobacterium lactis BB12)
Format: cell-based
Settings: iron fortifying agent combined with probiotic bacteria
Protocol: For practical reasons (accuracy in weighed amount), the amounts have been multiplied by 5.
Five preparations containing various iron fortifying agents and probiotic bacteria, and a control composition containing pro biotic bacteria and no iron fortifying agent were tested, as follows:
For each preparation, the required amount of iron fortificant was weighed. The iron fortificant was mixed with the specified amount of diluent TS+, i.e., a reconstitution solution with Tryptone, Sodium Chloride and Antifoam at 37° C. having the following composition:
The mixture was agitated until complete homogenization of the solution (3 min).
The probiotic bacteria preblend (PP036) was added and the mixture agitated for 1 min.
Each of the six preparations were analysed in triplicate.
Bacterial viability was determined immediately after preparation by plating of serial dilutions and subsequent counting of colony forming units. […] The principle of the method is the following: • Samples containing probiotics are weighed, rehydrated in a diluent (TS+) and homogenized by stomaching. • Serial decimal dilutions are performed in the same diluent (TS+) • 1 mL of each appropriate dilution is transferred to Petri dishes and mixed with a specific agar (pour-plate method) • The inoculated solidified agar plates are incubated under specific conditions enabling colony formation by the target bacteria (selective enumeration) • Colonies are counted and results are calculated and expressed in colony forming units per gram of sample (CFU/g).

| Substance | Effect on viability of probiotic bacteria (in words) |
| --- | --- |
| ferric ammonium citrate | caused a significant loss of bacteria viability |
| ferric pyrophosphate | does not decrease bacterial viability |
| ferrous bisglycinate | caused a significant loss of bacteria viability |
| ferrous sulfate | caused a significant loss of bacteria viability |
